From patent US4616007A, “Heterocyclthio compounds, process for their manufacture, pharmaceutical preparations that contain these compounds, and the use of the latter” (Ciba-Geigy Corporation, priority 1982, dated 1986)

Key:
[1] = tested on: Streptococcus pyogenes Aronson; assay: in vitro antibacterial activity (MIC); type: cell-based
[2] = tested on: Clostridium perfringens 194; assay: microbe, parasite or virus in culture; type: cell-based
Proteus morganii 1518 = assay: in vitro antibacterial activity (MIC); type: cell-based; conditions: Morganella morganii
Proteus rettgeri 856 = assay: in vitro antibacterial activity (MIC); type: cell-based; conditions: Providencia rettgeri
[3] = tested on: Streptococcus pneumoniae III/84; assay: in vitro antibacterial activity (MIC); type: cell-based
[4] = tested on: Bacteroides fragilis L 01; assay: in vitro antibacterial activity (MIC); type: cell-based; conditions: L01
[5] = tested on: Streptococcus faecalis D 3; assay: in vitro antibacterial activity (MIC); type: cell-based; conditions: Enterococcus faecalis, D3
[6] = tested on: Enterobacter cloacae ATCC 13047; assay: in vitro antibacterial activity (MIC); type: cell-based; conditions: ATCC13047
Proteus morganii 2359 = assay: in vitro antibacterial activity (MIC); type: cell-based; conditions: Morganella morganii
Serratia marcescens 344 = assay: in vitro antibacterial activity (MIC); type: cell-based
[7] = tested on: Staphylococcus aureus 10 B; assay: in vitro antibacterial activity (MIC); type: cell-based
Proteus mirabilis 774 = assay: in vitro antibacterial activity (MIC); type: cell-based
Escherichia coli 205 = assay: in vitro antibacterial activity (MIC); type: cell-based
Escherichia coli 16 = assay: in vitro antibacterial activity (MIC); type: cell-based
[8] = tested on: Klebsiella pneumoniae 327; assay: in vitro antibacterial activity (MIC); type: cell-based
[9] = tested on: Staphylococcus aureus 2999i+p+; assay: in vitro antibacterial activity (MIC); type: cell-based
Escherichia coli UB 1005 = assay: in vitro antibacterial activity (MIC); type: cell-based; conditions: UB1005
From the text: (§1) The compounds of the formula I have valuable pharmacological properties, or can be used as intermediates for the manufacture of such compounds having valuable pharmacological properties. Compounds of the formula I in which R1 represents hydrogen or methyl, R2 represents hydroxy, R3 represents carboxy, or an esterified carboxy group that can be cleaved under physiological conditions, and R4 has the meaning given under formula I, and pharmacologically acceptable salts of such compounds having salt-forming groups have anti-bacterial activity. For example, they are effective in vitro against gram-positive and gram-negative cocci, for example Staphylococcus aureus, Streptococcus pyogenes, Streptococcus pneumoniae, and Streptococcus faecalis, and against gram-negative rod-shaped bacilli, such as Enterobacteriaceae, Haemophilus influenzae and Pseudomonas aeruginosa, and anaerobes, for example Bacteroides sp., in minimum concentrations of from approximately 0.02 to approximately 64 μg/ml. In vivo, in the case of systemic infection of mice, for example by Staphylococcus aureus or Streptococcus pyogenes, on subcutaneous or oral administration of compounds of the invention ED50 values of from approximately 8.5 to approximately 100 mg/kg result.
(§2) For example, in vitro, sodium (5R,6S)-2-[3-(1-methyltetrazol-5-ylthio)-propyl]-6-hydroxymethyl-2-penem-3-carboxylate (compound 1) and sodium (5R,6S)-2-[3-(1-dimethylaminoethyltetrazol-5-ylthio)-propyl]-6-hydroxymethyl-2-penem-3-carboxylate (compound 2) and sodium (5R,6S)-2-[3-(1-methyltetrazol-5-ylthio)-ethyl-6-hydroxymethyl-2-penem-3-carboxylate (compound 3), have the following activity: […]

Escherichia coli DC 2 = assay: in vitro antibacterial activity (MIC); type: cell-based; conditions: DC2
From the text: as §1, §2

Proteus mirabilis 1219 = assay: in vitro antibacterial activity (MIC); type: cell-based
[10] = tested on: Haemophilus influenzae NCTC 4560; assay: in vitro antibacterial activity (MIC); type: cell-based; conditions: NCTC4560
[11] = tested on: Enterobacter cloacae P 99; assay: in vitro antibacterial activity (MIC); type: cell-based; conditions: P99
[12] = tested on: Escherichia coli 205 R+TEM; assay: in vitro antibacterial activity (MIC); type: cell-based
[13] = tested on: Streptococcus pyogenes Aronson; assay: in vivo systemic infection of mice
From the text: as §1
(§3) In vivo in the systemic infection of mice, the following activity is found: […]

Escherichia coli 2018 [14] = assay: in vivo systemic infection of mice
From the text: as §1, §3

[15] = tested on: Staphylococcus aureus 10 B; assay: in vivo systemic infection of mice
From the text: as §1, §3

[16] = tested on: Pseudomonas aeruginosa K 799/61; assay: in vitro antibacterial activity (MIC); type: cell-based; conditions: K799/61
[17] = tested on: Pseudomonas aeruginosa ATCC 12055; assay: in vitro antibacterial activity (MIC); type: cell-based; conditions: ATCC12055
[18] = tested on: Neisseria meningitidis 1316; assay: in vitro antibacterial activity (MIC); type: cell-based
[19] = tested on: Neisseria gonorrhoeae 1317-4; assay: in vitro antibacterial activity (MIC); type: cell-based; conditions: 13174
[20] = tested on: Staphylococcus aureus A 124; assay: in vitro antibacterial activity (MIC); type: cell-based; conditions: A124
From the text: as §1, §2

[21] = tested on: Staphylococcus aureus Wood 46; assay: in vitro antibacterial activity (MIC); type: cell-based; conditions: WOOD46
From the text: as §1, §2

Escherichia coli 2018 [22] = assay: in vitro antibacterial activity (MIC); type: cell-based
From the text: as §1, §2

Escherichia coli B-1385 = assay: in vitro antibacterial activity (MIC); type: cell-based; conditions: B1385
From the text: as §1, §2

For `Cn1nnnc1SCCCC1=C(C(=O)[O-])N2C(=O)[C@H](CO)[C@H]2S1.[Na+]` [Compound 1, sodium (5R,6S)-2-[3-(1-methyltetrazol-5-ylthio)-propyl]-6-hydroxymethyl-2-penem-3-carboxylate], which MIC [1] is on record?
Its MIC is 0.1 µg/mL.

What about the MIC [2] of the same molecule?
The MIC was 0.02 µg/mL.

What about the MIC (Proteus morganii 1518) of the same molecule?
The MIC was 4 µg/mL.

And the MIC (Proteus rettgeri 856)?
Its MIC is 4 µg/mL.

What about the MIC [3] of the same molecule?
The MIC was 0.02 µg/mL.

What about the MIC [4] of the same molecule?
Its MIC is 0.5 µg/mL.

And the MIC [5]?
Its MIC is 64 µg/mL.

And the MIC [6]?
The MIC was 64 µg/mL.

And the MIC (Proteus morganii 2359)?
Its MIC is 2 µg/mL.

And the MIC (Serratia marcescens 344)?
Its MIC is 16 µg/mL.

And the MIC [7]?
The MIC was 0.05 µg/mL.

And the MIC (Proteus mirabilis 774)?
Its MIC is 2 µg/mL.

And the MIC (Escherichia coli 205)?
The MIC was 2 µg/mL.

What about the MIC (Escherichia coli 16) of the same molecule?
Its MIC is 16 µg/mL.

What about the MIC [8] of the same molecule?
Its MIC is 4 µg/mL.

And the MIC [9]?
Its MIC is 0.05 µg/mL.

And the MIC (Escherichia coli UB 1005)?
The MIC was 4 µg/mL.

What about the MIC (Escherichia coli DC 2) of the same molecule?
The MIC was 2 µg/mL.

And the MIC (Proteus mirabilis 1219)?
The MIC was 8 µg/mL.

What about the MIC [10] of the same molecule?
Its MIC is 0.5 µg/mL.

And the MIC [11]?
The MIC was 32 µg/mL.

What about the MIC [12] of the same molecule?
Its MIC is 4 µg/mL.

What about the ED50 ([13]; po) of the same molecule?
Its ED50 is roughly 30 mg/kg.

And the ED50 ([13]; sc)?
Its ED50 is 8.5 mg/kg.

And the ED50 (Escherichia coli 2018 [14]; Escherichia coli, 2018, po, p.o.)?
The ED50 was 90 mg/kg.

What about the ED50 (Escherichia coli 2018 [14]; Escherichia coli, 2018, sc, s.c.) of the same molecule?
The ED50 was 30 to 100 mg/kg.

What about the ED50 ([15]; po) of the same molecule?
Its ED50 is 90 mg/kg.

And the ED50 ([15]; sc)?
Its ED50 is 60 mg/kg.

What about the MIC [16] of the same molecule?
The MIC was 2 µg/mL.

And the MIC [17]?
The MIC was greater than 128 µg/mL.

For `Cn1nnnc1SCCC1=C(C(=O)[O-])N2C(=O)[C@H](CO)[C@H]2S1.[Na+]` [Compound 3, Sodium (5R,6S)-2-[2-(1-Methyltetrazol-5-ylthio)-ethyl]-6-hydroxymethyl-2-penem-3-carboxylate], which MIC [1] is on record?
The MIC was 0.1 µg/mL.

What about the MIC [2] of the same molecule?
The MIC was 0.1 µg/mL.

What about the MIC (Proteus morganii 1518) of the same molecule?
The MIC was 4 µg/mL.

What about the MIC (Proteus rettgeri 856) of the same molecule?
Its MIC is 4 µg/mL.

What about the MIC [3] of the same molecule?
The MIC was 0.02 µg/mL.

What about the MIC [4] of the same molecule?
Its MIC is 0.2 µg/mL.

What about the MIC [5] of the same molecule?
The MIC was 32 µg/mL.

What about the MIC [6] of the same molecule?
Its MIC is 32 µg/mL.

What about the MIC (Proteus morganii 2359) of the same molecule?
Its MIC is 2 µg/mL.

And the MIC [18]?
The MIC was 0.02 µg/mL.

What about the MIC (Serratia marcescens 344) of the same molecule?
Its MIC is 16 µg/mL.

And the MIC [7]?
Its MIC is 0.05 µg/mL.

What about the MIC (Proteus mirabilis 774) of the same molecule?
Its MIC is 2 µg/mL.

What about the MIC (Escherichia coli 205) of the same molecule?
Its MIC is 1 µg/mL.

And the MIC [19]?
Its MIC is 0.01 µg/mL.

What about the MIC (Escherichia coli 16) of the same molecule?
Its MIC is 4 µg/mL.

And the MIC [8]?
The MIC was 2 µg/mL.

And the MIC [9]?
Its MIC is 0.05 µg/mL.

And the MIC [20]?
The MIC was 0.5 µg/mL.

What about the MIC [21] of the same molecule?
Its MIC is 0.05 µg/mL.

And the MIC (Escherichia coli 2018 [22])?
Its MIC is 0.5 µg/mL.

What about the MIC (Escherichia coli B-1385) of the same molecule?
The MIC was 2 µg/mL.

And the MIC (Escherichia coli UB 1005)?
Its MIC is 2 µg/mL.

And the MIC (Escherichia coli DC 2)?
Its MIC is 2 µg/mL.

What about the MIC (Proteus mirabilis 1219) of the same molecule?
Its MIC is 4 µg/mL.

And the MIC [10]?
Its MIC is 2 µg/mL.

What about the MIC [11] of the same molecule?
Its MIC is 16 µg/mL.

And the MIC [12]?
Its MIC is 2 µg/mL.

What about the ED50 ([13]; po) of the same molecule?
Its ED50 is 30 mg/kg.

And the ED50 ([13]; sc)?
Its ED50 is 12 mg/kg.

What about the MIC [16] of the same molecule?
The MIC was 1 µg/mL.

What about the MIC [17] of the same molecule?
The MIC was greater than 128 µg/mL.
